In publication PMC9609801, “Nipecotic Acid Derivatives as Potent Agents against Neurodegeneration: A Preliminary Study” (Molecules, 2022):

Target: T1, soybean lipoxygenase (lipoxygenase type I-B) (Glycine max, UniProt P08170)
T1 construct: gene LOX1.1
T1 sequence (P08170 1-839): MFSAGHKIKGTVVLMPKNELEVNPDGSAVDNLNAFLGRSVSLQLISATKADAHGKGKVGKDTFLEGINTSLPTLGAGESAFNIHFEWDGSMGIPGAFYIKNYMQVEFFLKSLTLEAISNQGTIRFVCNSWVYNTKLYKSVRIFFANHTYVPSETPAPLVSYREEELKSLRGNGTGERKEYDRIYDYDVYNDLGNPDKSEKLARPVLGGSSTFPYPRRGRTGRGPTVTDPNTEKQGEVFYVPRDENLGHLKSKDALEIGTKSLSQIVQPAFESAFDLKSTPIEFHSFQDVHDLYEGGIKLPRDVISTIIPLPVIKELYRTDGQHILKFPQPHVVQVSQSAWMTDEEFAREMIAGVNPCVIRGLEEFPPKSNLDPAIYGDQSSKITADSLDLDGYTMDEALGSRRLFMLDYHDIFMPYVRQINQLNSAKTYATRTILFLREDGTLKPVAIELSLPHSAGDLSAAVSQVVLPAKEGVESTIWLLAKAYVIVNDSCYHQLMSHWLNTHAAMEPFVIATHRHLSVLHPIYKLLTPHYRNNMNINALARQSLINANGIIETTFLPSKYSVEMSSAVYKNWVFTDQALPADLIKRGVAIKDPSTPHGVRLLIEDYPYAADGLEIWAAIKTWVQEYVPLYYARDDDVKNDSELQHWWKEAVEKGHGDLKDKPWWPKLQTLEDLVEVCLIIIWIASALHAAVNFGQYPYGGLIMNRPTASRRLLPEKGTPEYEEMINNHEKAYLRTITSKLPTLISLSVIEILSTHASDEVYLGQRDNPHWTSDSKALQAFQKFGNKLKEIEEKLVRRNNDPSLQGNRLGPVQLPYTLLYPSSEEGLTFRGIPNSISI
Assay: linoleate oxidation at […] nm, % inhibition at […] μΜ
Format: biochemical
Conditions: read-out: % Inhibition (LOX)

Row | SMILES | inhibition at 100 µM [%]
1 | CCOC(=O)C1CCCN(C(=O)c2cc(C(C)(C)C)c(O)c(C(C)(C)C)c2)C1 (centres unmarked) [compound 1, Ethyl 1-(3,5-di-tert-butyl-4-hydroxybenzoyl)piperidine-3-carboxylate] | 31
2 | CCOC(=O)C1CCCN(C(=O)/C=C/c2cc(C(C)(C)C)c(O)c(C(C)(C)C)c2)C1 (centres unmarked) [compound 2, (E)-Ethyl 1-(3-(3,5-di-tert-butyl-4-hydroxyphenyl)acryloyl)piperidine-3-carboxylate] | 33
